Results published in patent publication US20040126431A1, “Method for preparing microspheres containing a water-soluble substance” (priority 2000, published 2004).

Columns and labels:
[1] = test system: PC-3 human prostate tumors (xenografts); assay: Antitumor activity on PC-3 human prostate tumors after i.t. administration; assay type: in vivo, Nude mice
Procedure: 10^7 PC-3 cells were inoculated on the flank of male Nude mice. The treatment began from a tumor size of 210-266 mm^3 (day 30).
The volume of the test substances administered to the PC-3 tumors was equivalent to the tumor volume (1 μl of treatment per 1 mm^3 of tumor).
(§1) The experiments were stopped when the size of the tumor reached 2 000 mm^3 or when the period after the final treatment exceeded 60 days. Mice carrying progressive tumors were sacrificed. The mice were weighed and examined twice a week, and the weight of the sick animals was compared with the weight of three healthy mice (no tumor, no treatment, of the same batches). The animals were monitored for 98 days.

[2] = test system: IGROV-1 xenografts (peritoneal ovarian adenocarcinoma of human origin); assay: Antitumor activity on IGROV-1 tumors after i.p. administration; assay type: in vivo, Nude mice; details: for Survival at D98: survivors/5 mice
Text: 10^7 viable IGROV-1 cells were inoculated i.p. into Nude mice. On day 15 after inoculation of tumor cells, the mice were given the substances tested by i.p. administration.
The control group was given only a solution of 5% glucose or empty microspheres. Each group was made up of 5 mice. Isoflurane was used to anesthetize the animals before implantation of the tumor or sacrifice of the animals.
as §1

In the case of O=C1[O][Pt]2([NH][C@@H]3CCCC[C@H]3[NH]2)[O]C1=O [Oxaliplatin, oxaliplatin], the T/C % ([1]; i.v., 6 mg/kg oxaliplatin administered three times every four days) is reported as 80.41%, the T/C % ([1]; single i.t. injection, 30 mg/kg oxaliplatin, 30 mg/kg) is reported as 5.24% and the T/C % ([1]; single i.v. injection, 15 mg/kg oxaliplatin) is reported as 55.47%. For the same molecule, the “T/C % (median survival time treated / untreated control x 100)” value ([2]; i.p., 6 mg/kg oxaliplatin administered 3 times every four days, treatment from day 15) was 85.71%, the “Survival at D98” value ([2]; i.p., 6 mg/kg oxaliplatin administered 3 times every four days) was 0/5 and the “antitumor activity (in words)” value ([2]; i.p., dose of 15 mg base/kg oxaliplatin) was “did not show any significant antitumor activity”. For the same molecule, the “T/C % (median survival time treated / untreated control x 100)” value ([2]; single i.p. dose, 15 mg/kg oxaliplatin, day 15) was 102.38% and the “Survival at D98” value ([2]; single i.p. dose, 15 mg/kg oxaliplatin) was 1/5.
